# Measured values: PMC9774939, “Optimization of Pyrazole Compounds as Antibiotic Adjuvants Active against Colistin- and Carbapenem-Resistant Acinetobacter baumannii” (Antibiotics, 2022)
# Where two headings read alike, the source gives them in different places.
# Columns and labels:
# [1] = tested on: E. coli CCUG^T; test: Chequerboard analysis with colistin; assay type: cell-based, Escherichia coli; settings: combination with colistin; synergy when ≤0.5
# Description: (§1) The chequerboard analysis is a two-dimensional array in which individual microplate wells contain a unique combination of the concentrations of the tested compound and colistin. Tested concentrations of the compound ranged from 64 to 0.06 μg/mL along the x-axis, whereas polymyxin E1 concentrations ranged from 2 to 0.03 μg/mL (or 32–0.5 μg/mL when polymyxin E1-resistant clinical isolates were used) and varied along the y-axis. Determining the fractional inhibitory concentration (FIC) of both compounds and computing the average FIC index allowed us to determine whether a synergistic, additive, or antagonistic activity between the tested compounds could be observed. A synergistic activity occurred when the average FIC index was equal to or less than 0.5 [21, 27].
# [2] = tested on: K. pneumoniae ATCC 13833; test: Chequerboard analysis with colistin; assay type: cell-based, Klebsiella pneumoniae; settings: combination with colistin; synergy when ≤0.5
# Description: as §1
# [3] = tested on: K. pneumoniae SI-004Bo; test: Chequerboard analysis with colistin; assay type: cell-based, Klebsiella pneumoniae; settings: combination with colistin; pandrug-resistant, colistin-resistant isolate
# Text: (§2) Carbapenem-resistant, colistin-resistant, and XDR clinical isolates were kindly provided by Prof. Gian Maria Rossolini (University of Florence, Italy). Klebsiella pneumoniae SI-004Bo is a KPC-producing, pandrug-resistant isolate (KKBO-4 [17]) selected in vivo during colistin therapy (colistin resistance mechanism, IS-mediated insertional inactivation of mgrB). Acinetobacter baumannii N50 is an OXA-24-producing clinical isolate resistant to all β-lactams, aminoglycosides, and fluoroquinolones.
# as §1
# [4] = tested on: A. baumannii ATCC 17978; test: Chequerboard analysis with colistin; assay type: cell-based, Acinetobacter baumannii; settings: combination with colistin; synergy when ≤0.5
# Description: as §1
# [5] = tested on: A. baumannii N50; test: Chequerboard analysis with colistin; assay type: cell-based, Acinetobacter baumannii; settings: combination with colistin; MDR, colistin-resistant isolate
# Text: as §2, §1
# [6] = Hemolytic activity; assay type: cell-based; settings: 0.025–10 μg of compound
# Description: The hemolytic activity of compounds 1, 2, 8, 9, 45, and 49 (0.025–10 μg) was investigated using the method described by Bechlars et al.. Triton X-100 was used as the hemolysis control and DMSO as the negative control.
# [7] = tested on: eight reference strains, Gram-positive and Gram-negative; parameters: method as in PMID 32435403; settings: parent compound; cited from earlier work
# [8] = tested on: Escherichia coli CCUG^T; parameters: method as in PMID 32435403; settings: parent compounds, cited from earlier work; for MAC Eco: in the presence of 0.5 × MIC colistin; for MIC/MAC Ratio Eco: minimal ratio
# [9] = tested on: Klebsiella pneumoniae ATCC 13833; parameters: method as in PMID 32435403; settings: parent compounds, cited from earlier work; for MAC Kpn: in the presence of 0.5 × MIC colistin; for MIC/MAC Ratio Kpn: minimal ratio
# [10] = tested on: Acinetobacter baumannii ATCC 17978; parameters: method as in PMID 32435403; settings: parent compounds, cited from earlier work; for MAC Aba: in the presence of 0.5 × MIC colistin; for MIC/MAC Ratio Aba: minimal ratio
# [11] = tested on: Escherichia coli CCUG^T; test: MAC determination in the presence of subinhibitory colistin; assay type: cell-based; settings: for MAC Eco: in the presence of 0.5 × MIC colistin; for MIC/MAC Ratio Eco: minimal ratio of MIC of compound alone to MAC with 0.5 × MIC colistin
# Description: (§3) The minimum inhibitory concentration (MIC) and minimum bactericidal concentration (MBC) of the compounds were determined in triplicate using Mueller–Hinton broth and a bacterial inoculum of 5 × 10^5 CFU/mL, as recommended by the CLSI [26]. The minimum antibacterial concentration (MAC) of the compounds was determined in the presence of a fixed and subinhibitory concentration of colistin (as mentioned above).
# [12] = tested on: Klebsiella pneumoniae ATCC 13833; test: as above; assay type: cell-based; parameters: key to MAC Kpn: -: No synergistic activity; settings: for MAC Kpn: in the presence of 0.5 × MIC colistin; for MIC/MAC Ratio Kpn: minimal ratio of MIC of compound alone to MAC with 0.5 × MIC colistin
# Description: as §3
# [13] = tested on: Acinetobacter baumannii ATCC 17978; test: as above; assay type: cell-based; settings: for MAC Aba: in the presence of 0.5 × MIC colistin; for MIC/MAC Ratio Aba: minimal ratio of MIC of compound alone to MAC with 0.5 × MIC colistin
# Description: as §3
# [14] = Membrane integrity assay (LDH release); assay type: cell-based; settings: human, HeLa cells; tested alone, 24 h exposure; read-out: IC50 cytotoxicity (membrane-damaging activity, LDH release)
# Description: The potential cytotoxic activity of compounds was evaluated using the commercially available integrity assay (CytoTox 96® non-radioactive cytotoxicity assay, Promega). The compounds were tested for their ability to induce the lysis of HeLa cells by measuring the release of lactate dehydrogenase (LDH) after incubating the HeLa cell cultures (20,000 cells/well) for 24 h (37 °C, 5% CO2) in DMEM (Dulbecco’s Modified Eagle Medium) supplemented with 10% fetal bovine serum, 4.5 mg/mL glucose, and 2 mM L-glutamine in the absence and presence of varying concentrations of the compounds (up to 256 µg/mL). Further controls included samples containing the medium only or in which cell lysis was induced by the addition of 9% Triton X-100 (maximum LDH release control). The percentage of cytotoxicity was computed as 100 × (sample LDH release)/(maximum LDH release). The variation of the percentage of cytotoxicity allowed us to compute an IC50 value (compound concentration inducing 50% cytotoxicity).
# [15] = tested on: Acinetobacter baumannii N50; test: MBC determination in the presence of colistin; assay type: cell-based; settings: in the presence of 2 µg/mL of colistin
# Description: as §3
# [16] = tested on: HeLa cells; test: Cell viability and proliferation assay (RealTime-Glo MT); assay type: cell-based; settings: 16 µg/mL of compound, up to 72 h
# Description: The cytotoxicity of the compounds was also evaluated by measuring the number of viable cells in the culture with respect to the control culture (cells treated with DMSO only) using the RealTime-Glo™ MT Cell Viability Assay in the presence of varying concentrations of the compound. The assay is a nonlytic homogeneous, bioluminescent method that can be used to measure cell viability/proliferation in real time using NanoLuc® luciferase and a cell-permeant prosubstrate (MT Cell Viability Substrate). […]
# [17] = tested on: Acinetobacter baumannii N50; test: Time-kill curve analysis; assay type: cell-based
# Description: The time-dependent bacterial killing of colistin, compound 9, or a combination thereof was investigated using established methods. Briefly, a culture medium containing a starting inoculum of 5.0 × 10^6 CFU/mL of Acinetobacter baumannii N50 clinical isolate was incubated aerobically at 35 °C under orbital agitation (200 rpm) in Mueller–Hinton broth, in the absence (growth control) or presence of either 2 μg/mL of colistin (a concentration equivalent to the susceptibility breakpoint), 8 µg/mL of compound 9, or both. The bacterial count (expressed in CFU/mL) in the control and antibiotic-containing media was determined every hour for up to 6 h of incubation via serial 10-fold dilution and direct plating of 0.1 mL of the sample on the Mueller–Hinton Agar medium (without antibiotic), which was incubated for 24 h at 35 °C.
Compound,Average FIC Index [1],Average FIC Index [2],Average FIC Index [3],Average FIC Index [4],Average FIC Index [5],hemolytic activity [6],MAC Eco [11],MIC/MAC Ratio Eco [11],MAC Kpn [12],MAC Aba [13],MIC/MAC Ratio Aba [13],MBC [15],melting point,MIC/MAC Ratio Kpn [12],further results
O=C(NCc1ccc2c(c1)OCO2)c1cnn(-c2ccccc2)c1-n1cccc1 [Compound 1],0.5,0.5,1,0.38,0.5,no hemolytic activity could be observed,,,,,,,,,direct antibacterial activity [7]: no direct antibacterial activity was observed; MAC Eco [8]: 64 µg/mL; MIC/MAC Ratio Eco [8]: 8; MAC Kpn [9]: 64 µg/mL; MIC/MAC Ratio Kpn [9]: 8; MAC Aba [10]: 32 µg/mL; MIC/MAC Ratio Aba [10]: 16
Cc1c(C(=O)N(C)CCN(C)C)nn(-c2ccc(Cl)cc2)c1-n1cccc1 [Compound 2],0.31,0.5,1,0.39,0.4,no hemolytic activity could be observed,,,,,,,,,MAC Eco [8]: 64 µg/mL; MIC/MAC Ratio Eco [8]: 8; MAC Kpn [9]: 32 µg/mL; MIC/MAC Ratio Kpn [9]: 16; MAC Aba [10]: 16 µg/mL; MIC/MAC Ratio Aba [10]: 32
"O=C(NC12CC3CC(CC(C3)C1)C2)c1cnn(-c2ccccc2)c1-n1cccc1 [Compound 8, N-(Adamantan-1-yl)-1-phenyl-5-(1H-pyrrol-1-yl)-1H-pyrazole-4-carboxamide]",0.38,0.5,1,0.31,0.24,no hemolytic activity could be observed,32 µg/mL,16,- ^a,4 µg/mL,128,> 64 µg/mL,167 to 169 °C,,IC50 at 24 h [14]: > 256 µg/mL
"CC(C)(C)OC(=O)[C@H](Cc1ccccc1)NC(=O)c1cnn(-c2ccccc2)c1-n1cccc1 [Compound 9, tert-Butyl (S)-3-Phenyl-2-[[[1-phenyl-5-(1H-pyrrol-1-yl)-1H-pyrazol-4-yl]carbonyl]amino]propanoate]",0.33,0.32,1,0.34,0.23,no hemolytic activity could be observed,8 µg/mL,64,8 µg/mL,4 µg/mL,128,> 64 µg/mL,,64,"proliferation of HeLa cells [16]: not significantly altered; reduction of bacterial population (time-kill) ([17]; 2 µg/mL of colistin and 8 µg/mL of 9, within 5 h): 4 log10; antibacterial activity alone (time-kill) ([17]; 8 µg/mL of 9 alone): does not exhibit antibacterial activity"
"Cc1c(C(=O)Nc2ccc(O)cc2)nn(-c2ccc(Cl)cc2)c1-n1cccc1 [Compound 45, 1-(4-Chlorophenyl)-N-(4-hydroxyphenyl)-4-methyl-5-(1H-pyrrol-1-yl)-1H-pyrazole-3-carboxamide]",0.31,0.31,1,0.31,0.26,no hemolytic activity could be observed,4 µg/mL,128,4 µg/mL,8 µg/mL,64,> 64 µg/mL,226 to 228 °C,128,
"Cc1c(C(=O)Nc2ccc(S(C)(=N)=O)cc2)nn(-c2ccc(Cl)cc2)c1-n1cccc1 (stereo not drawn) [Compound 49, 1-(4-Chlorophenyl)-4-methyl-N-[4-(S-methylsulfonimidoyl)phenyl]-5-(1H-pyrrol-1-yl)-1H-pyrazole-3-carboxamide]",0.32,0.39,1,0.38,0.31,no hemolytic activity could be observed,8 µg/mL,64,4 µg/mL,8 µg/mL,64,> 64 µg/mL,207 to 210 °C,128,
Colistin [reference compound],,,,,,,,,,,,,,,bactericidal effect (time-kill) ([17]; colistin alone at 2 µg/mL): not expectedly able to show any bactericidal effect
